# From patent publication US10736922B2, “High telomerase activity bone marrow mesenchymal stem cells, methods of producing the same and pharmaceuticals and treatment methods based thereon” (UNIVERSITY OF SOUTHERN CALIFORNIA, priority 2010, dated 2020)
# What was measured:
# telomerase [1] = assay: Telomerase activity, TeloTAGGG Telomerase PCR ELISA kit, mouse BMMSC cultures; assay type: cell-based
# Method: (§1) Inhibitor treatment. tBMMSCs and BMMSCs were treated with 1 mM L-NMMA (Cayman Chemical) or 0.2 mM 1400 W (Cayman Chemical) to inhibit total NOS or iNOS, respectively. Aspirin 50 μg/ml (TAT) and telomerase inhibitor III (1 μM; EMD Chemicals) were used to activate and suppress telomerase activity in cultured BMMSCs, respectively. CHIRON 99021 (1 or 10 μM; Chiron Corporation) and Dickkopf 1 (DKK1, 10 ng/ml, R&D Systems) were used as an activator and inhibitor to regulate β catenin levels in BMMSCs.
# Measurement of telomerase activity. The Telomerase activity was measured using TeloTAGGG Telomerase PCR ELISA kit (Roche).
# NO production in BMMSCs = assay: Measurement of nitric oxide production in BMMSC culture supernatant; assay type: cell-based, mouse
# Method: as §1
# Measurement of nitric oxide production. BMMSCs (0.2×10^6/well) were cultured on 24-well plates with or without cytokines (IFNγ, 25 ng/ml; IL-1β, 5 ng/ml, R&D Systems) and chemicals (L-NMMA, 1 mM; 1400W, 0.2 mM; aspirin, 50 μg/ml; Telomerase inhibitor III, 1 μM; CHIRON 99021, 1 or 10 μM; DKK1, 10 ng/ml) at indicated concentration and days. The same chemical concentration was also used in combination treatment such as DKK and aspirin or Telomerase inhibitor and CHIRON99021. The supernatant from each culture was collected and measured nitric oxide concentration using Total Nitric Oxide and Nitrate/Nitrite Parameter Assay kit (R&D Systems) according to manufacturer's instruction.
# active β-catenin = assay: Western blot of active beta-catenin in BMMSCs; assay type: cell-based, mouse
# Method: (§2) Western blotting analysis. […] of protein were used and SDS-PAGE and western blotting were performed according to standard procedures. β-actin on the same membrane served as the loading control.
# as §1
# iNOS = target: T1, iNOS (Mus musculus, UniProt P29477); assay: Western blot of iNOS expression; assay type: cell-based; details: BMMSCs and tBMMSCs, L-NMMA 1 mM or 1400W 0.2 mM, 3 days
# T1 construct: endogenous in cells; host or cells: primary BMMSCs and tBMMSCs
# T1 sequence (P29477 1-1144): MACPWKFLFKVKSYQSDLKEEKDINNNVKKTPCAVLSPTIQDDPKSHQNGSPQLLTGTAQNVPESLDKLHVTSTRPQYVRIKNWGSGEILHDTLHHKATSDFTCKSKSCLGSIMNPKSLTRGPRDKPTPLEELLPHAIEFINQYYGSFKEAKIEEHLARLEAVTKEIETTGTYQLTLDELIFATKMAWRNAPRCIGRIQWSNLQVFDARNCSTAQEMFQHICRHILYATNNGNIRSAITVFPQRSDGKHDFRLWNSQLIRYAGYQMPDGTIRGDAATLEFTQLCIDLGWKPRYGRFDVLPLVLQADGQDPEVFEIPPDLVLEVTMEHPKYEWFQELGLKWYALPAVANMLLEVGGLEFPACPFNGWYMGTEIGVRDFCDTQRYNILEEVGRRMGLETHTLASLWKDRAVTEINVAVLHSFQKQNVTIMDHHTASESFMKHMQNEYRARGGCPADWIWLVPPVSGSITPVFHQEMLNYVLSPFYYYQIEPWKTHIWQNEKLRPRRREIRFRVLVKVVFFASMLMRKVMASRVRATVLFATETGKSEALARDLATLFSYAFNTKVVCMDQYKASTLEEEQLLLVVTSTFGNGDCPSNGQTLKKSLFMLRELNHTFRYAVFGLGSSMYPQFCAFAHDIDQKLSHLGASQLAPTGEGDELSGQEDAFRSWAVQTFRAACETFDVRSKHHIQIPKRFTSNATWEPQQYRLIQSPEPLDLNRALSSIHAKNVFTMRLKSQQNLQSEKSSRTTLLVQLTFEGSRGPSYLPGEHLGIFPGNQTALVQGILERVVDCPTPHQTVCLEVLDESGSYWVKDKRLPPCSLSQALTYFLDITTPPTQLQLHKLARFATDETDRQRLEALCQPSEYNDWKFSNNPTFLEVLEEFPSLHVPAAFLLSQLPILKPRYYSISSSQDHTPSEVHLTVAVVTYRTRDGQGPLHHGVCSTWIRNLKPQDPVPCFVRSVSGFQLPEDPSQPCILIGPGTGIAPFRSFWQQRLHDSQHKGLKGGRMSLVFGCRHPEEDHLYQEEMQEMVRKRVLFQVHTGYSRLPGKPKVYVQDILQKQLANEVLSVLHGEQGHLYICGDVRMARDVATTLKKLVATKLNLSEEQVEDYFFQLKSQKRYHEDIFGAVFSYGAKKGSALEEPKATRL
# Method: as §2, §1
# activated SP cells [2] = assay: Cell survival assay, Transwell co-culture with activated splenocytes (cell counting kit-8); assay type: cell-based, mouse; details: for tBMMSC / BMMSC effect on cell viability of activated SP cells: L-NMMA 1 mM or 1400W 0.2 mM in co-culture
# Method: (§3) Cell apoptosis and cell survival assay. Transwell system (Corning) was used for co-culture experiments. 0.2×10^6 of tBMMSCs or BMMSCs were seeded on each lower chamber. In the upper chambers, activated splenocytes (1×10^6/chamber), which were pre-stimulated with plate-bounded anti CD3ε antibody (5 μg/ml) and soluble anti CD28 antibody (2 μg/ml) for 3 days, were loaded. Both chambers were filled with a complete medium containing Dulbecco's Modified Eagle Medium (DMEM, Lonza) with 10% heat-inactivated FBS, 50 μM 2-mercaptoethanol, 10 mM HEPES, 1 mM sodium pyruvate (Sigma), 1% non-essential amino acid (Cambrex), 2 mM L-glutamine, 100 U/ml penicillin and […] streptomycin. To measure the splenocyte viability, cell counting kit-8 (Dojindo Molecular Technoloies) were used. For apoptosis of splenocyte analysis, Annexin V-PE apoptosis detection kit I (BD Bioscience) were used and analyzed on FACS^Calibur (BD Bioscience).
# activated SP cells [3] = assay: Cell apoptosis assay, Transwell co-culture with activated splenocytes (Annexin V/7AAD); assay type: cell-based, mouse; details: for number of early and late apoptotic SP cells in tBMMSC and regular BMMSC groups: L-NMMA 1 mM or 1400W 0.2 mM in co-culture
# Method: as §3
# CD4^+CD25^+Foxp3^+ Tregs = assay: In vitro CD4+CD25+Foxp3+ Tregs induction; assay type: cell-based, mouse; details: L-NMMA 1 mM or 1400W 0.2 mM
# Method: In vitro CD4^+CD25^+Foxp3^+Tregs induction. CD4^+CD25^− T-lymphocytes (1×10^6/well), collected by CD4^+CD25^+ regulatory T-cell Isolation kit (Miltenyi Biotec), were pre-stimulated with plate bounded anti CD3E antibody (5 μg/ml) and soluble anti CD28 antibody (2 μg/ml) for 3 days. These activated T-lymphocytes were loaded on 0.2×10^6 of BMMSC or tBMMSC cultures with recombinant human TFGβ1 (2 μg/ml) (R&D Systems) and recombinant mouse IL2 (2 μg/ml) (R&D Systems). After 3 days, cells in suspension were collected and stained with anti CD4-PerCP, anti CD8a-FITC, anti CD25-APC antibodies (each 1 μg) for 45 min on ice under dark condition. And then cells were stained with anti Foxp3-PE antibody (1 μg) using Foxp3 staining buffer kit (eBioscience) for cell fixation and permeabilization. The cells were analyzed on FACS^Calibur (BD Bioscience).
# telomerase [4] = assay: Telomerase activity in human BMMSCs, Telo TAGGG Telomerase PCR ELISA kit; assay type: cell-based; details: aspirin in culture medium at 2.5 μg/ml or 50 μg/ml for 1 week
# [5] = system: telomerase reverse transcriptase (TERT); assay: Western blot of TERT expression; assay type: cell-based, mouse; details: aspirin treatment, one week
# Method: as §2
# [6] = system: CD73, Sca-1, Oct4, SSEA4, CD34, CD45; assay: Flow cytometric analysis of mesenchymal stem cell surface molecules; assay type: cell-based, mouse; details: aspirin treatment
# Method: Flow cytometric analysis of mesenchymal stem cell surface molecules. BMMSCs or pBMMSCs (0.2×10^6) were incubated with 1 µg of PE conjugated antibodies or isotype-matched control IgGs (Southern Biotech) at 4° C. for 45 min. Samples were analyzed by FACS^Calibur flow cytometer (BD Bioscience). For dual color analysis, the cells were treated with PE conjugated and FITC conjugated antibodies or isotype-matched control IgGs (each 1 […]g). The cells were analyzed on FACS^Calibur (BD Bioscience).
# [7] = L-NMMA 1 mM or 1400W 0.2 mM, 3 days
# [8] = BMMSCs treated with aspirin (TAT) prior to co-culture
compound,measurement,setting,value
Cc1cnc(-c2cnc(NCCNc3ccc(C#N)cn3)nc2-c2ccc(Cl)cc2Cl)[nH]1 [Chiron 99021],Telomerase activity in BMMSCs,"telomerase [1]; Chiron treatment, 7 days",elevated telomerase activity
same,NO production in BMMSCs,"NO production in BMMSCs; Chiron 1 and 10 μM, 1 week",up-regulated NO production in BMMSCs in a dose-dependent manner
same,active beta-catenin in BMMSCs,"active β-catenin; Chiron 99021, 7 days",elevation of active beta-catenin in a dose-dependent manner
"CNC(=N)NCCC[C@H](N)C(=O)O [L-NMMA, NG-monomethyl-L-arginine]",NO production in BMMSCs,NO production in BMMSCs; [7],inhibit NO production
same,iNOS expression,iNOS,inhibited
same,tBMMSC / BMMSC effect on cell viability of activated SP cells,activated SP cells [2],"significantly block tBMMSC, but not regular BMMSC, induced cell viability"
same,number of early and late apoptotic SP cells in tBMMSC and regular BMMSC groups,activated SP cells [3],significantly reduced
same,BMMSC- and tBMMSC-induced up-regulation of Tregs,CD4^+CD25^+Foxp3^+ Tregs,inhibit
CC(=N)NCc1cccc(CN)c1 [1400W],NO production in BMMSCs,NO production in BMMSCs; [7],inhibit NO production
same,iNOS expression,iNOS,inhibited
same,tBMMSC / BMMSC effect on cell viability of activated SP cells,activated SP cells [2],"significantly block tBMMSC, but not regular BMMSC, induced cell viability"
same,"inhibition of early apoptotic SP cells, tBMMSC group compared to regular BMMSC group",activated SP cells [3]; 1400W 0.2 mM,significantly greater inhibition
same,number of early and late apoptotic SP cells in tBMMSC and regular BMMSC groups,activated SP cells [3],significantly reduced
same,BMMSC- and tBMMSC-induced up-regulation of Tregs,CD4^+CD25^+Foxp3^+ Tregs,inhibit
CC(=O)Oc1ccccc1C(=O)O [aspirin],Telomerase activity in BMMSCs,telomerase [1]; regular BMMSCs cultured with aspirin (50 μg/ml) for one week,significantly elevated
same,Telomerase activity in human BMMSCs,telomerase [4],significantly increased level of telomerase activity
same,NO production in BMMSCs,NO production in BMMSCs; regular BMMSCs cultured with aspirin for one week,significantly elevated
same,telomerase reverse transcriptase (TERT) expression in BMMSCs,[5],significantly elevated
same,DKK1-induced down-regulation of activated beta-catenin,active β-catenin; aspirin (TAT) treatment,partially block
same,CD34 expression in BMMSCs,[6],elevates CD34 expression
same,BMMSC-induced reduction of activated SP cell viability,activated SP cells [2]; [8],promote BMMSC-induced reduction of activated SP cell viability
same,BMMSC-induced early and late apoptosis of activated SP cells,activated SP cells [3]; [8],elevation of early and late apoptosis
"DKK1: Wnt inhibitor, Dickkopf 1 (R&D Systems)",aspirin (TAT)-induced telomerase activity in BMMSCs,"telomerase [1]; DKK1 10 ng/ml, DKK-TAT",capable of blocking
same,aspirin-induced NO production in BMMSCs,"NO production in BMMSCs; DKK1 10 ng/ml added prior to aspirin (TAT) treatment, three days",significantly block
same,activated β-catenin level in BMMSCs,active β-catenin; DKK1 10 ng/ml,reducing activated β-catenin level
